Laboratory results as given in patent publication US6896895B2, “Carotenoid esters, carotenoid-enriched feeds, and methods of pigmenting foods and foodstuffs” (DSM IP Assets B.V., priority 2000, dated 2005).

Columns and labels:
[1] = tested on: skin and shanks of broilers; assay: Reflectance colorimetry and visual classification of skin and shanks of broilers; type: in vivo, broiler chickens (Ross 308, Ross 508); set-up: key to Shanks Visual Classification / Skin Visual Classification: −; (+); +; ++ = good color; o = orange; conditions: for Shanks Chroma C*ab % of Controls / Shanks Color Hue h*ab % of Controls / Skin Chroma C*ab % of Controls / Skin Color Hue h*ab % of Controls / Shanks Chroma C*ab Value / Shanks Color Hue h*ab Value / Shanks Visual Classification / Skin Chroma C*ab Value / Skin Color Hue h*ab Value / Skin Visual Classification: dry carcasses; for chroma C*a*b* values in the skin and in the shanks / color hue h*a*b* in the skin and in the shanks / effectiveness in terms of concentration in the skin, and color intensity (chroma C*a*b*) in the skin and shanks: versus the control
How it was run: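 Ross broilers were fed a low-carotenoid basal diet (<2 mg xanthophylls/kg), then received pigment-supplemented diet for three weeks and were slaughtered on day 44. Back-skin colour (mean of three points) and shank colour (single reading) were measured by Minolta chromameter (D65, 0°) and reported as CIE L*a*b*, h* and C*, averaged over ten birds (5 male, 5 female).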

[2] = Carotenoid ester content in plasma, back skin and abdominal fat of broilers (HPLC); type: in vivo, broiler chickens (Ross 308, Ross 508); conditions: for concentrations determined as equivalents of the ethyl β-apo-8′-carotenoate, in the skin: in comparison to the other 12 tested carotenoid esters
How it was run: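 Ross 308/508 broilers, raised on low-carotenoid basal diet (<2 mg xanthophylls/kg) to day 15 or 22, then fed pigment-supplemented diet for three weeks; plasma sampled day 42, back skin and abdominal fat pooled per group at slaughter on day 44. Carotenoid esters quantified by normal-phase HPLC (0.5% acetone in n-hexane) calibrated with all-E ethyl β-apo-8′-carotenoate; Z-isomers corrected by factor 1.4.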

[3] = average over doses, in relation to the controls (CAROPHYLL Yellow) of the same trial, Table 3
[4] = trial MC-24/99, 20 mg/kg feed, in relation to the controls of the same trial
[5] = trial MC-24/99, 30 mg/kg feed, in relation to the controls of the same trial

CCCC(C)OC(=O)C(C)=CC=CC(C)=CC=CC=C(C)C=CC=C(C)C=CC1=C(C)CCCC1(C)C (stereo not drawn) [compound (19), 2-pentyl beta-apo-8′-carotenoate]
Shanks Chroma C*ab % of Controls ([1]; average over doses, Table 5): 105%
Shanks Color Hue h*ab % of Controls ([1]; average over doses, Table 5): 98%
Skin Chroma C*ab % of Controls ([1]; average over doses, Table 5): 106%
Skin Color Hue h*ab % of Controls ([1]; average over doses, Table 5): 97%
Shanks Chroma C*ab % of Controls ([1]; trial MC-24/99, 20 mg/kg feed): 108%
Shanks Chroma C*ab Value ([1]; trial MC-24/99, 20 mg/kg feed): 60
Shanks Color Hue h*ab % of Controls ([1]; trial MC-24/99, 20 mg/kg feed): 98%
Shanks Color Hue h*ab Value ([1]; trial MC-24/99, 20 mg/kg feed): 82
Shanks Visual Classification ([1]; trial MC-24/99, 20 mg/kg feed): +
Skin Chroma C*ab % of Controls ([1]; trial MC-24/99, 20 mg/kg feed): 106%
Skin Chroma C*ab Value ([1]; trial MC-24/99, 20 mg/kg feed): 34
Skin Color Hue h*ab % of Controls ([1]; trial MC-24/99, 20 mg/kg feed): 96%
Skin Color Hue h*ab Value ([1]; trial MC-24/99, 20 mg/kg feed): 73
Skin Visual Classification ([1]; trial MC-24/99, 20 mg/kg feed): +
Shanks Chroma C*ab % of Controls ([1]; trial MC-24/99, 30 mg/kg feed): 102%
Shanks Chroma C*ab Value ([1]; trial MC-24/99, 30 mg/kg feed): 65
Shanks Color Hue h*ab % of Controls ([1]; trial MC-24/99, 30 mg/kg feed): 98%
Shanks Color Hue h*ab Value ([1]; trial MC-24/99, 30 mg/kg feed): 82
Shanks Visual Classification ([1]; trial MC-24/99, 30 mg/kg feed): ++
Skin Chroma C*ab % of Controls ([1]; trial MC-24/99, 30 mg/kg feed): 105%
Skin Chroma C*ab Value ([1]; trial MC-24/99, 30 mg/kg feed): 38
Skin Color Hue h*ab % of Controls ([1]; trial MC-24/99, 30 mg/kg feed): 97%
Skin Color Hue h*ab Value ([1]; trial MC-24/99, 30 mg/kg feed): 76
chroma C*a*b* values in the skin and in the shanks [1]: substantially enhanced
color hue h*a*b* in the skin and in the shanks [1]: not significantly changed
effectiveness in terms of concentration in the skin, and color intensity (chroma C*a*b*) in the skin and shanks [1]: significantly more effective
Analytical Content as Equivalent of Ethyl β-apo-8′-carotenoate Fat % [2, 3]: 85%
Analytical Content as Equivalent of Ethyl β-apo-8′-carotenoate Plasma % [2, 3]: 88%
Analytical Content as Equivalent of Ethyl β-apo-8′-carotenoate Skin % [2, 3]: 134%
concentrations determined as equivalents of the ethyl β-apo-8′-carotenoate, in the skin [2]: substantially higher
Analytical Content as Equivalent of Ethyl β-apo-8′-carotenoate Fat ([2]; trial MC-24/99, 20 mg/kg feed): 2.6 mg/kg
Analytical Content as Equivalent of Ethyl β-apo-8′-carotenoate Plasma ([2]; trial MC-24/99, 20 mg/kg feed): 9.6 mg/kg
Analytical Content as Equivalent of Ethyl β-apo-8′-carotenoate Skin ([2]; trial MC-24/99, 20 mg/kg feed): 3.6 mg/kg
Analytical Content as Equivalent of Ethyl β-apo-8′-carotenoate Fat % [2, 4]: 83%
Analytical Content as Equivalent of Ethyl β-apo-8′-carotenoate Plasma % [2, 4]: 93%
Analytical Content as Equivalent of Ethyl β-apo-8′-carotenoate Skin % [2, 4]: 128%
Analytical Content as Equivalent of Ethyl β-apo-8′-carotenoate Fat ([2]; trial MC-24/99, 30 mg/kg feed): 3.8 mg/kg
Analytical Content as Equivalent of Ethyl β-apo-8′-carotenoate Plasma ([2]; trial MC-24/99, 30 mg/kg feed): 13.3 mg/kg
Analytical Content as Equivalent of Ethyl β-apo-8′-carotenoate Skin ([2]; trial MC-24/99, 30 mg/kg feed): 4.8 mg/kg
Analytical Content as Equivalent of Ethyl β-apo-8′-carotenoate Fat % [2, 5]: 87%
Analytical Content as Equivalent of Ethyl β-apo-8′-carotenoate Plasma % [2, 5]: 82%
Analytical Content as Equivalent of Ethyl β-apo-8′-carotenoate Skin % [2, 5]: 139%

CC(C=CC=C(C)C=CC1=C(C)CCCC1(C)C)=CC=CC=C(C)C=CC=C(C)C(=O)OC(C)(C)C [compound (18), tert. butyl beta-apo-8′-carotenoate]
Shanks Chroma C*ab % of Controls ([1]; average over doses, Table 5): 113%
Shanks Color Hue h*ab % of Controls ([1]; average over doses, Table 5): 100%
Skin Chroma C*ab % of Controls ([1]; average over doses, Table 5): 115%
Skin Color Hue h*ab % of Controls ([1]; average over doses, Table 5): 105%
Shanks Chroma C*ab % of Controls ([1]; trial MC-24/99, 20 mg/kg feed): 114%
Shanks Chroma C*ab Value ([1]; trial MC-24/99, 20 mg/kg feed): 63
Shanks Color Hue h*ab % of Controls ([1]; trial MC-24/99, 20 mg/kg feed): 100%
Shanks Color Hue h*ab Value ([1]; trial MC-24/99, 20 mg/kg feed): 84
Shanks Visual Classification ([1]; trial MC-24/99, 20 mg/kg feed): +
Skin Chroma C*ab % of Controls ([1]; trial MC-24/99, 20 mg/kg feed): 116%
Skin Chroma C*ab Value ([1]; trial MC-24/99, 20 mg/kg feed): 38
Skin Color Hue h*ab % of Controls ([1]; trial MC-24/99, 20 mg/kg feed): 107%
Skin Color Hue h*ab Value ([1]; trial MC-24/99, 20 mg/kg feed): 81
Skin Visual Classification ([1]; trial MC-24/99, 20 mg/kg feed): +
Shanks Chroma C*ab % of Controls ([1]; trial MC-24/99, 30 mg/kg feed): 111%
Shanks Chroma C*ab Value ([1]; trial MC-24/99, 30 mg/kg feed): 70
Shanks Color Hue h*ab % of Controls ([1]; trial MC-24/99, 30 mg/kg feed): 99%
Shanks Color Hue h*ab Value ([1]; trial MC-24/99, 30 mg/kg feed): 82
Shanks Visual Classification ([1]; trial MC-24/99, 30 mg/kg feed): ++
Skin Chroma C*ab % of Controls ([1]; trial MC-24/99, 30 mg/kg feed): 113%
Skin Chroma C*ab Value ([1]; trial MC-24/99, 30 mg/kg feed): 41
Skin Color Hue h*ab % of Controls ([1]; trial MC-24/99, 30 mg/kg feed): 102%
Skin Color Hue h*ab Value ([1]; trial MC-24/99, 30 mg/kg feed): 80
Skin Visual Classification ([1]; trial MC-24/99, 30 mg/kg feed): ++
chroma C*a*b* values in the skin and in the shanks [1]: substantially enhanced
color hue h*a*b* in the skin and in the shanks [1]: not significantly changed
effectiveness in terms of concentration in the skin, and color intensity (chroma C*a*b*) in the skin and shanks [1]: significantly more effective
Analytical Content as Equivalent of Ethyl β-apo-8′-carotenoate Fat % [2, 3]: 113%
Analytical Content as Equivalent of Ethyl β-apo-8′-carotenoate Plasma % [2, 3]: 103%
Analytical Content as Equivalent of Ethyl β-apo-8′-carotenoate Skin % [2, 3]: 198%
Analytical Content as Equivalent of Ethyl β-apo-8′-carotenoate Skin % ([2]; average over doses, in relation to the controls (CAROPHYLL Yellow) of the same trial, Table 3, listed as tert. Butyl β-apo-8′-carotenoate): 189%
concentrations determined as equivalents of the ethyl β-apo-8′-carotenoate, in the skin [2]: substantially higher
Analytical Content as Equivalent of Ethyl β-apo-8′-carotenoate Fat ([2]; trial MC-24/99, 20 mg/kg feed): 3.7 mg/kg
Analytical Content as Equivalent of Ethyl β-apo-8′-carotenoate Plasma ([2]; trial MC-24/99, 20 mg/kg feed): 12.2 mg/kg
Analytical Content as Equivalent of Ethyl β-apo-8′-carotenoate Skin ([2]; trial MC-24/99, 20 mg/kg feed): 5.4 mg/kg
Analytical Content as Equivalent of Ethyl β-apo-8′-carotenoate Fat % [2, 4]: 119%
Analytical Content as Equivalent of Ethyl β-apo-8′-carotenoate Plasma % [2, 4]: 117%
Analytical Content as Equivalent of Ethyl β-apo-8′-carotenoate Skin % [2, 4]: 194%
Analytical Content as Equivalent of Ethyl β-apo-8′-carotenoate Fat ([2]; trial MC-24/99, 30 mg/kg feed): 4.6 mg/kg
Analytical Content as Equivalent of Ethyl β-apo-8′-carotenoate Plasma ([2]; trial MC-24/99, 30 mg/kg feed): 14.1 mg/kg
Analytical Content as Equivalent of Ethyl β-apo-8′-carotenoate Skin ([2]; trial MC-24/99, 30 mg/kg feed): 6.4 mg/kg
Analytical Content as Equivalent of Ethyl β-apo-8′-carotenoate Fat % [2, 5]: 107%
Analytical Content as Equivalent of Ethyl β-apo-8′-carotenoate Plasma % [2, 5]: 88%
Analytical Content as Equivalent of Ethyl β-apo-8′-carotenoate Skin % [2, 5]: 184%
